The text below walks through data of article PMC12587786, “In vitro α-glucosidase inhibition, molecular dynamics and docking study of phenyl carbamoyl methoxy thiosemicarbazone derivatives as potential anti-diabetic agents” (Journal of Enzyme Inhibition and Medicinal Chemistry, 2025).

“Also recorded” adds a separate entry of the source. Where two headings read alike, the source gives them in different places.

The target of series [1] is T1, α-glucosidase (from Saccharomyces cerevisiae EC 3.2.1.20) (Saccharomyces cerevisiae, UniProt P53341).
T1 construct: purchased Sigma
T1 sequence (P53341 whole entry): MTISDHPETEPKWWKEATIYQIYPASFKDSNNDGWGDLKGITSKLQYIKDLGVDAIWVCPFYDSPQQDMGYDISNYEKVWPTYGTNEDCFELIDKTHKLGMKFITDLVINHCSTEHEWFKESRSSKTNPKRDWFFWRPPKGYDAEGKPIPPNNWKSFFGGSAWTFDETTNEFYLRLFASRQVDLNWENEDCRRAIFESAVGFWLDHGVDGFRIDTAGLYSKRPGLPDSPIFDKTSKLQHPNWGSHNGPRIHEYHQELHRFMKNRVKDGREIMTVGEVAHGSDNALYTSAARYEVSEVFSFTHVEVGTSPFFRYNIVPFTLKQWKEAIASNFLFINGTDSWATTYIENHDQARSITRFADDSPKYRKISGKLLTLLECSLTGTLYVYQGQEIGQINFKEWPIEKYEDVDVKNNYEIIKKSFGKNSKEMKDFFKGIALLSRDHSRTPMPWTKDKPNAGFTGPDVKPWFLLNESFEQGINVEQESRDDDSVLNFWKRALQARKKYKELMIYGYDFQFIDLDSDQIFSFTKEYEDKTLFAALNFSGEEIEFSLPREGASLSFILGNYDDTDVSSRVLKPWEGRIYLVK
As to the kind of experiment: biochemical. The protocol:
The method described by Azizian et al. with some modifications was used to assess αglucosidase inhibitory activity of novel derivatives of phenyl carbamoyl methoxy thiosemicarbazone. The enzyme solution was prepared of αglucosidase (1 U/mL) in a […] phosphate buffer (pH: 6.8). The final volume of assay solution in the 96-well plate was 200 µl, which was prepared in the following order: 20 µl of the enzyme solution was used to obtain a final enzyme activity of […] per well. 20 µl of various concentrations of novel inhibitors (1000, 500, 250, 125, 62.5, 31.25, and 15.62 µM) and potassium phosphate buffer (135 µl, pH = 6.8). The 96-well plate was incubated for 10 min at 37 °C and pNPG as substrate (25 µl, 4 mM) was added to each well of the plate and was incubated again for 30 min at 37 °C. Finally, absorbance was measured at 405 nm using a spectrophotometer (BioTek ELx808, USA). […] The IC50 values for the tested inhibitors were calculated using Microsoft Excel 2016 software and non-linear regression analysis.

The next series deals with T2, α-glucosidase (Saccharomyces cerevisiae, UniProt P53341).
T2 construct: purchased Sigma
T2 sequence (P53341 whole entry): as above
As to the kind of experiment: Kinetic study of α-glucosidase inhibition (Lineweaver-Burk and secondary plots). The class given is biochemical. The protocol: Kinetic studies were conducted to determine the inhibition mechanism of the strongest novel inhibitor with the lowest IC50. […] The experimental inhibitor constant[42] was made using secondary plots.
This was achieved using Lineweaver–Burk plots to determine the type of inhibition mechanism and the Km value. […] This mode of inhibition is particularly advantageous for antidiabetic therapy, as it facilitates glucose-dependent modulation of enzyme activity. […] These attributes highlight the promise of 7e as a therapeutic agent for managing postprandial glucose levels in individuals with type 2 DM.

Series [2] can be described thus: MTT cytotoxicity assay on A549 cells. The conditions noted are these: human, A549 cells (non-small cell lung carcinoma cell line), 24 h, MTT, read-out: cell viability rate; for viability at 24 h, 12.5 µM: A549, 12.5 µM; for viability at 24 h, 25 µM: A549, 25 µM; for viability at 24 h, 50 µM: A549, 50 µM; for viability at 24 h, 100 µM: A549, 100 µM. The class given is cell-based. On the procedure:
(§1) To evaluate the cytotoxic effects of novel derivatives of phenyl carbamoyl methoxy thiosemicarbazone, an MTT assay was conducted using the non-small cell lung carcinoma cell line A549 and the MDA-MB-453 human breast cancer cell line. Both cell lines were obtained from the Pasteur Institute in Iran, and the assay was performed following the method of Jelena et al.[15], with some minor modifications.
(§2) In short, 100 µl of A549 cells (1 × 10^5) cultured in DMEM (Dulbecco’s modified Eagle’s medium) enriched with 10% foetal bovine serum (FBS) and 100 U/mL penicillin. […] streptomycin were added to each well in a 96-well plate, and they were incubated at 37 °C and 5% CO2 for 24 h. Also, 100 µl of MDA-MB-453 cells (1 × 10^5) cultured in RPMI enriched with 10% FBS and 100 U/mL penicillin and […] streptomycin were added to each well in a 96-well plate and were incubated at 37 °C and 5% CO2 for 24 h. Subsequently, the medium in both cell lines was replaced with different concentrations (12.5, 25, 50, and 100 µM) of two derivatives of 7e and 7 g, and plates were incubated at 37 °C and 5% CO2 for 24 h. After that, 10 µl of MTT (3–4, 5 dimethyl thiazol- 2 yl)-2, 5- diphenyl tetrazolium bromide) (Sigma USA) dye ([…] in PBS) was added to each well and incubated for 4 h at 37 °C. After 4 h, the solution was removed from the cells, and 100 µl of DMSO (dimethyl sulfoxide) was added to the wells. The optical density of each well was measured at 570 nm using an ELISA reader (BioTek ELx808, USA). The wells containing more cells have a higher optical density (OD) than those with fewer cells. Therefore, the wells with more cells can be identified using the following equation and compared with the control sample. Toxicity%=1−mean OD of sample/mean OD of control∗100 viability%=100−Toxicity %
(§3) PBS buffer and 1% Triton X-100 were negative and positive controls, respectively. All tests were conducted in triplicate.

Series [3] concerns non-small cell lung carcinoma cell line A549. As to the kind of experiment: MTT cytotoxicity assay on A549 cells. The class given is cell-based. The conditions noted are these: A549. The protocol:
as §1, §2, §3
(Formazan colour is commonly taken as a measure of viable cells.)

Series [4] is described as follows: MTT cytotoxicity assay on MDA-MB-453 cells. The class given is cell-based, human. The conditions noted are these: human, MDA-MB-453 cells (breast cancer cell line), 24 h, MTT, read-out: cell survival rate / cell viability; for viability at 24 h, 12.5 µM: MDA-MB-453, 12.5 µM; for viability at 24 h, 25 µM: MDA-MB-453, 25 µM; for viability at 24 h, 50 µM: MDA-MB-453, 50 µM; for viability at 24 h, 100 µM: MDA-MB-453, 100 µM. On the procedure: as §1, §2, §3

Series [5] relates to MDA-MB-453 human breast cancer cell line. The experiment in a line: MTT cytotoxicity assay on MDA-MB-453 cells. The class given is cell-based. The conditions noted are these: MDA-MB-453. On the procedure:
as §1, §2, §3

Setting [6] is: pNPG substrate, pH 6.8, 37 °C, mean ± SD, n = 3, read-out: IC50 (µM) ± SD, α-glucosidase inhibitory activity.

With `COc1cc(/C=N\NC(N)=S)ccc1OCC(=O)Nc1ccc(C)cc1` [Compound 7b, 2-{4-[(Z)-[(carbamothioylamino)imino]methyl]-2-methoxyphenoxy}-N-(4-methylphenyl) acetamide], the IC50 (as a rule, the concentration at which inhibition is half-maximal) in series [1] (setting [6]) came out at 151.18 ± 0.02 µM.

Consider `COc1cc(/C=N\NC(N)=S)ccc1OCC(=O)Nc1cccc(C)c1` [Compound 7e, 2-{4-[(Z)-[(carbamothioylamino)imino]methyl]-2-methoxyphenoxy}-N-(3-methylphenyl) acetamide], for which the IC50 in series [1] was 23.95 ± 0.038 µM. The Ki (in general, the equilibrium dissociation constant of an inhibitor or competing ligand from its target) on α-glucosidase was 34.8 µM. Besides, on α-glucosidase (Lineweaver–Burk plots), the “Type of inhibition mechanism” value was “competitive inhibitor”. Moreover, the “Vmax with increasing inhibitor concentration” value at α-glucosidase (inhibitor 0-250 µM) was “remained unchanged”. Besides, in series [2], the viability at 24 h, 12.5 µM came to 95.5%; the viability at 24 h, 25 µM turned out to be 84.3%; the viability at 24 h, 50 µM was found to be 75.2%; the viability at 24 h, 100 µM was 63.7%. Further, the “cytotoxic activity (in words)” value in series [3] is given as “did not possess important cytotoxic activity; also recorded: low cytotoxicity”. In series [4], the viability at 24 h, 12.5 µM turned out to be 97.4%; the viability at 24 h, 25 µM came out at 74.7%; the viability at 24 h, 50 µM was found to be 66.3%; the viability at 24 h, 100 µM was found to be 57.2%. In addition, in series [5], the “cytotoxic activity (in words)” value is reported as “did not possess important cytotoxic activity; also recorded: low cytotoxicity”.

Consider `COc1cc(/C=N\NC(N)=S)ccc1OCC(=O)Nc1cccc([N+](=O)[O-])c1` [Compound 7f, 2-{4-[(Z)-[(carbamothioylamino)imino]methyl]-2-methoxyphenoxy}-N-(3-nitrophenyl) acetamide], for which, in series [1], the midpoint of inhibition, the IC50, lay at 328.17 ± 0.083 µM.

On to “2-{4-[(Z)-[(carbamothioylamino)imino]methyl]-2-methoxyphenoxy}-N-(4-methylphenyl) acetamide [Compound 7i]”, for which the IC50 in series [1] (setting [6]) turned out to be 125.9 ± 0.016 µM.

`COc1cc(/C=N\NC(N)=S)ccc1OCC(=O)Nc1ccc(C)cc1C` [Compound 7l, 2-{4-[(Z)-[(carbamothioylamino)imino]methyl]-2-methoxyphenoxy}-N-(2,4-dimethylphenyl) acetamide] registered an IC50 in series [1] of 122.72 ± 0.098 µM.

Consider `COc1ccc(NC(=O)COc2ccc(/C=N\NC(N)=S)cc2OC)cc1` [Compound 7m, 2-{4-[(Z)-[(carbamothioylamino)imino]methyl]-2-methoxyphenoxy}-N-(4-methoxyphenyl) acetamide], for which the IC50 in series [1] (setting [6]) amounted to 436.5 ± 0.062 µM.

In series [1], `COc1cc(/C=N\NC(N)=S)ccc1OCC(=O)Nc1ccccc1F` [Compound 7n, 2-{4-[(Z)-[(carbamothioylamino)imino]methyl]-2-methoxyphenoxy}-N-(2-fluorophenyl) acetamide] had an IC50 of 95.65 ± 0.056 µM.

For `COc1cc(/C=N\NC(N)=S)ccc1OCC(=O)Nc1cccc(C)c1C` [Compound 7j, 2-{4-[(Z)-[(carbamothioylamino)imino]methyl]-2-methoxyphenoxy}-N-(2,3-dimethylphenyl) acetamide], in series [1], inhibition was half-maximal at 103.91 ± 0.028 µM (IC50).

As for `CCc1ccc(NC(=O)COc2ccc(/C=N\NC(N)=S)cc2OC)cc1` [Compound 7c, 2-{4-[(Z)-[(carbamothioylamino)imino]methyl]-2-methoxyphenoxy}-N-(4-ethylphenyl) acetamide], the IC50 in series [1] (setting [6]) is 95.99 ± 0.273 µM.

In turn, `COc1cc(C=NNC(N)=S)ccc1OCC(=O)NCc1ccccc1` [Compound 7d] displayed an IC50 in series [1] of 216.42 ± 0.025 µM.

`COc1cc(/C=N\NC(N)=S)ccc1OCC(=O)Nc1ccccc1` [Compound 7a, 2-{4-[(Z)-[(carbamothioylamino)imino]methyl]-2-methoxyphenoxy}-N-phenylacetamide] registered an IC50 in series [1] of 257 ± 0.491 µM.

Regarding `COc1cc(/C=N\NC(N)=S)ccc1OCC(=O)Nc1ccc(Br)cc1` [Compound 7h, N-(4-bromophenyl)-2-{4-[(Z)-[(carbamothioylamino)imino]methyl]-2-methoxyphenoxy} acetamide], in series [1] (setting [6]), the IC50 stood at 573.67 ± 0.043 µM.

With `COc1cc(/C=N\NC(N)=S)ccc1OCC(=O)Nc1ccccc1Cl` [7 g, 2-{4-[(Z)-[(carbamothioylamino)imino]methyl]-2-methoxyphenoxy}-N-(2-chlorophenyl) acetamid], 62.2 ± 0.411 µM corresponded to half-maximal inhibition in series [1] (IC50). For the same compound, in series [2], the viability at 24 h, 12.5 µM is 96.2%; the viability at 24 h, 25 µM turned out to be 72.4%; the viability at 24 h, 50 µM stood at 57.3%; the viability at 24 h, 100 µM stood at 27.7%. In series [4], the viability at 24 h, 12.5 µM stood at 89.6%; the viability at 24 h, 25 µM amounted to 66.7%; the viability at 24 h, 50 µM was determined as 50.6%; the viability at 24 h, 100 µM worked out at 41%.

The compound `COc1cc(/C=N\NC(N)=S)ccc1OCC(=O)Nc1ccc(Cl)cc1` [Compound 7k, 2-{4-[(Z)-[(carbamothioylamino)imino]methyl]-2-methoxyphenoxy}-N-(4-chlorophenyl) acetamide] returned an IC50 in series [1] of 442.41 ± 0.009 µM.
